Source: US20240254115A1 (ACONDICIONAMIENTO TARRASENSE, priority 2021, published 2024)

Key:
human σ1 receptor = molecular target: T1, human σ1 receptor (Homo sapiens, UniProt Q99720); experiment: Human σ1 receptor radioligand assay; details: transfected HEK-293 membranes, 5 nM [3H](+)-pentazocine, 37° C. 120 minutes; + may also stand for 1-50% inhibition at 1 or 10 μM; read-out: Binding σ-1 Ki
T1 construct: expressed in transfected cells; host or cells: HEK-293
Method: Human σ1 Receptor Radioligand Assay
Transfected HEK-293 membranes (7 μg) were incubated with 5 nM of [^3H](+)-pentazocine in assay buffer containing Tris-HCl 50 mM at pH 8. NBS (non-specific binding) was measured by adding 10 μM haloperidol. The binding of the test compound was measured at either one concentration (% inhibition at 1 or 10 μM) or five different concentrations to determine affinity values (Ki). Plates were incubated at 37° C. for 120 minutes. After the incubation period, the reaction mix was then transferred to MultiScreen HTS, FC plates (Millipore), filtered and plates were washed 3 times with ice-cold 10 mM Tris-HCL (pH7.4). Filters were dried and counted at approximately 40% efficiency in a MicroBeta scintillation counter (Perkin-Elmer) using EcoScint liquid scintillation cocktail.

human σ2/TMEM97 receptor = molecular target: T2, human σ2/TMEM97 receptor (Homo sapiens, UniProt Q5BJF2); experiment: Binding assay to human σ2/TMEM97 receptor; details: transfected HEK-293 membranes, 10 nM [3H]-DTG, 25° C. 120 minutes; + may also stand for 1-50% inhibition at 1 or 10 μM; read-out: Binding σ-2 Ki
T2 construct: expressed in transfected cells; host or cells: HEK-293
T2 sequence (Q5BJF2 whole entry): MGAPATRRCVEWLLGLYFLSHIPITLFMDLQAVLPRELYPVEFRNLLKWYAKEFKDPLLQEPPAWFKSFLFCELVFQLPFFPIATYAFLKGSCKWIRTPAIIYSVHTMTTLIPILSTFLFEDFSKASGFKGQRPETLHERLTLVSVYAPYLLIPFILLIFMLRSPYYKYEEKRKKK
Method: Binding Assay to Human σ2/TMEM97 Receptor
Transfected HEK-293 membranes (15 μg) were incubated with 10 nM [^3H]-1,3-Di-o-tolylguanidine (DTG) in assay buffer containing Tris-HCl 50 mM at pH 8.0. NSB (non-specific binding) was measured by adding 10 μM haloperidol. The binding of the test compound was measured at either one concentration (% inhibition at 1 or 10 μM) or five different concentrations to determine affinity values (Ki). Plates were incubated at 25° C. for 120 minutes. After the incubation period, the reaction mix was transferred to MultiScreen HTS, FC plates (Millipore), filtered and washed 3 times with ice-cold 10 mM Tris-HCL (pH 8.0). Filters were dried and counted at approximately 40% efficiency in a MicroBeta scintillation counter (Perkin-Elmer) using EcoScint liquid scintillation cocktail.

T1 sequence (Q99720 whole entry): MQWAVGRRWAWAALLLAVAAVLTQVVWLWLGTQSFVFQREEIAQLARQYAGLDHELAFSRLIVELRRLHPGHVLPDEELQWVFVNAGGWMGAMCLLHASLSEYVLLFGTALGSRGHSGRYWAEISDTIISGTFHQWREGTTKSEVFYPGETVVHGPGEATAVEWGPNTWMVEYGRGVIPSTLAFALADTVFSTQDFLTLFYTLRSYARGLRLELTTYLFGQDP

Ki (human σ1 receptor) [nM] | Ki (human σ2/TMEM97 receptor) [nM] | Compound
> 1000 | > 1000 | CN(Cc1cccnc1)[C@H]1CC[C@H](NS(=O)(=O)c2ccc(N3CCOCC3)nc2)CC1 [Example 59, N-((1r,4r)-4-(Methyl(pyridin-3-ylmethyl)amino)cyclohexyl)-6-morpholinopyridine-3-sulfonamide]
> 1000 | 100 to 500 | CN(Cc1ccncc1)[C@H]1CC[C@H](NS(=O)(=O)c2ccc(N3CCOCC3)nc2)CC1 [Example 60, N-((1r,4r)-4-(Methyl(pyridin-4-ylmethyl)amino)cyclohexyl)-6-morpholinopyridine-3-sulfonamide]
100 to 500 | < 100 | O=S(=O)(c1ccc(N2CCOCC2)nc1)N1CCCC2(CCN(Cc3ccccc3)CC2)C1 [Example 61, 4-(5-((9-Benzyl-2,9-diazaspiro[5.5]undecan-2-yl)sulfonyl)pyridin-2-yl)morpholine]
100 to 500 | < 100 | N#Cc1ccc(CN2CCC3(CCCN(S(=O)(=O)c4ccc(N5CCOCC5)nc4)C3)CC2)cc1F [Example 62, 2-Fluoro-4-((2-((6-morpholinopyridin-3-yl)sulfonyl)-2,9-diazaspiro[5.5]undecan-9-yl)methyl)benzonitrile]
100 to 500 | < 100 | O=S(=O)(c1ccc(N2CCOCC2)nc1)N1CCCC2(CCN(Cc3ccncc3)CC2)C1 [Example 63, 4-(5-((9-(Pyridin-4-ylmethyl)-2,9-diazaspiro[5.5]undecan-2-yl)sulfonyl)pyridin-2-yl)morpholine]
> 1000 | 100 to 500 | O=S(=O)(c1ccc(N2CCOCC2)nc1)N1CCC[C@H](CNCc2ccc(O)nc2)C1 [Example 64, (R)-5-((((1-((6-Morpholinopyridin-3-yl)sulfonyl)piperidin-3-yl)methyl)amino)methyl)pyridin-2-ol]
> 1000 | 100 to 500 | O=S(=O)(c1ccc(N2CCOCC2)nc1)N1CCC[C@@H](CNCc2ccc(O)nc2)C1 [Example 65, (S)-5-((((1-((6-Morpholinopyridin-3-yl)sulfonyl)piperidin-3-yl)methyl)amino)methyl)pyridin-2-ol]
< 100 | < 100 | CC(C)(C)CCN1CCC2(CC1)CCN(S(=O)(=O)c1ccc(C(F)(F)F)nc1)CC2 [Example 66, 3-(3,3-Dimethylbutyl)-9-((6-(trifluoromethyl)pyridin-3-yl)sulfonyl)-3,9-diazaspiro[5.5]undecane]
< 100 | < 100 | CC(C)(C)CCN1CCC2(CC1)CCN(S(=O)(=O)c1ccc(C(F)(F)F)nc1)C2 [Example 67, 8-(3,3-Dimethylbutyl)-2-((6-(trifluoromethyl)pyridin-3-yl)sulfonyl)-2,8-diazaspiro[4.5]decane]
100 to 500 | < 100 | CC(C)(C)CCN1CCC2(CC1)CCN(S(=O)(=O)c1ccc(N3CCC4(CCOC4)CC3)nc1)CC2 [Example 68, 8-(5-((9-(3,3-Dimethylbutyl)-3,9-diazaspiro[5.5]undecan-3-yl)sulfonyl)pyridin-2-yl)-2-oxa-8-azaspiro[4.5]decane]
100 to 500 | < 100 | CC(C)(C)CCN1CCC2(CC1)CCN(S(=O)(=O)c1ccc(N3CCS(=O)(=O)CC3)nc1)CC2 [Example 69, 4-(5-((9-(3,3-Dimethylbutyl)-3,9-diazaspiro[5.5]undecan-3-yl)sulfonyl)pyridin-2-yl)thiomorpholine 1,1-dioxide]
< 100 | < 100 | CC(C)(C)CCN1CCC2(CC1)CCN(S(=O)(=O)c1ccc(N3CCC(F)(F)CC3)nc1)CC2 [Example 70, 3-((6-(4,4-Difluoropiperidin-1-yl)pyridin-3-yl)sulfonyl)-9-(3,3-dimethylbutyl)-3,9-diazaspiro[5.5]undecane]
< 100 | < 100 | CC(C)(C)CCN1CCC2(CC1)CCN(S(=O)(=O)c1ccc(N3CCC4(CCCO4)CC3)nc1)CC2 [Example 71, 8-(5-((9-(3,3-Dimethylbutyl)-3,9-diazaspiro[5.5]undecan-3-yl)sulfonyl)pyridin-2-yl)-1-oxa-8-azaspiro[4.5]decane]
500 to 1000 | < 100 | CC(C)(C)CCN1CCC2(CC1)CCN(S(=O)(=O)c1ccc(N3CCC4(CC3)COC4)nc1)CC2 [Example 72, 7-(5-((9-(3,3-Dimethylbutyl)-3,9-diazaspiro[5.5]undecan-3-yl)sulfonyl)pyridin-2-yl)-2-oxa-7-azaspiro[3.5]nonane]
100 to 500 | < 100 | CC(C)CCN1CCC2(CC1)CCN(S(=O)(=O)c1ccc(N3CCC(F)(F)CC3)nc1)CC2 [Example 73, 3-((6-(4,4-Difluoropiperidin-1-yl)pyridin-3-yl)sulfonyl)-9-isopentyl-3,9-diazaspiro[5.5]undecane]
100 to 500 | < 100 | O=S(=O)(c1ccc(N2CCC(F)(F)CC2)nc1)N1CCC2(CCN(Cc3ccccc3)CC2)CC1 [Example 74, 3-Denzyl-9-((6-(4,4-difluoropiperidin-1-yl)pyridin-3-yl)sulfonyl)-3,9-diazaspiro[5.5]undecane]
< 100 | < 100 | CC(C)(C)CCN1CCCC2(CCN(S(=O)(=O)c3ccc(N4CCOCC4)nc3)CC2)C1 [Example 75, 4-(5-((2-(3,3-Dimethylbutyl)-2,9-diazaspiro[5.5]undecan-9-yl)sulfonyl)pyridin-2-yl)morpholine]
< 100 | < 100 | CC(C)(C)CCN1CCCC2(CCN(S(=O)(=O)c3ccc(N4CCC(F)(F)CC4)nc3)CC2)C1 [Example 76, 9-((6-(4,4-Difluoropiperidin-1-yl)pyridin-3-yl)sulfonyl)-2-(3,3-dimethylbutyl)-2,9-diazaspiro[5.5]undecane]
< 100 | < 100 | CC(C)CCN1CCCC2(CCN(S(=O)(=O)c3ccc(N4CCC(F)(F)CC4)nc3)CC2)C1 [Example 77, 9-((6-(4,4-Difluoropiperidin-1-yl)pyridin-3-yl)sulfonyl)-2-isopentyl-2,9-diazaspiro[5.5]undecane]
< 100 | < 100 | CC(C)(C)CCN1CCCC2(CCN(S(=O)(=O)c3ccc(N4CCC5(CCCO5)CC4)nc3)CC2)C1 [Example 78, 8-(5-((2-(3,3-Dimethylbutyl)-2,9-diazaspiro[5.5]undecan-9-yl)sulfonyl)pyridin-2-yl)-1-oxa-8-azaspiro[4.5]decane]
100 to 500 | < 100 | CC(C)(C)CCN1CCC2(CC1)CCN(S(=O)(=O)c1ccc(N3CCOCC3)nc1)C2 [Example 79, 4-(5-((8-(3,3-Dimethylbutyl)-2,8-diazaspiro[4.5]decan-2-yl)sulfonyl)pyridin-2-yl)morpholine]
< 100 | < 100 | CC(C)(C)CCN1CCC2(CC1)CCN(S(=O)(=O)c1ccc(N3CCC(F)(F)CC3)nc1)C2 [Example 80, 2-((6-(4,4-Difluoropiperidin-1-yl)pyridin-3-yl)sulfonyl)-8-(3,3-dimethylbutyl)-2,8-diazaspiro[4.5]decane]
< 100 | < 100 | CC(C)(C)CCN1CCC2(CC1)CCN(S(=O)(=O)c1ccc(N3CCC4(CCCO4)CC3)nc1)C2 [Example 81, 8-(5-((8-(3,3-Dimethylbutyl)-2,8-diazaspiro[4.5]decan-2-yl)sulfonyl)pyridin-2-yl)-1-oxa-8-azaspiro[4.5]decane]
< 100 | < 100 | O=S(=O)(c1ccc(N2CCC(F)(F)CC2)nc1)N1CCC2(CCN(Cc3ccccc3)CC2)C1 [Example 82, 8-Benzyl-2-((6-(4,4-difluoropiperidin-1-yl)pyridin-3-yl)sulfonyl)-2,8-diazaspiro[4.5]decane]
< 100 | < 100 | O=S(=O)(c1ccc(N2CCC(F)(F)CC2)nc1)N1CCC2(CCN(CC3CCOCC3)CC2)C1 [Example 83, 2-((6-(4,4-Difluoropiperidin-1-yl)pyridin-3-yl)sulfonyl)-8-((tetrahydro-2H-pyran-4-yl)methyl)-2,8-diazaspiro[4.5]decane]
< 100 | 100 to 500 | O=S(=O)(c1ccc(N2CCC(F)(F)CC2)nc1)N1CCC2(CCCN(CC3CCOCC3)C2)CC1 [Example 84, 9-((6-(4,4-Difluoropiperidin-1-yl)pyridin-3-yl)sulfonyl)-2-((tetrahydro-2H-pyran-4-yl)methyl)-2,9-diazaspiro[5.5]undecane]
< 100 | 500 to 1000 | CC(C)(C)CN1CCCC2(CCN(S(=O)(=O)c3ccc(N4CCC(F)(F)CC4)nc3)CC2)C1 [Example 85, 9-((6-(4,4-Difluoropiperidin-1-yl)pyridin-3-yl)sulfonyl)-2-neopentyl-2,9-diazaspiro[5.5]undecane]
< 100 | < 100 | CN(Cc1ccccc1)C1CCN(S(=O)(=O)c2ccc(N3CCC(F)(F)CC3)nc2)CC1 [Example 86, N-Benzyl-1-((6-(4,4-difluoropiperidin-1-yl)pyridin-3-yl)sulfonyl)-N-methylpiperidin-4-amine]
